Values after ≈ are worked out from the molar mass of the structure shown. Where two headings read alike, the source gives them in different places.
Legend:
[1] = system: Pseudomonas aeruginosa IFO 3080; test: Antibacterial spectrum, MIC on agar (Table 3); type: cell-based; conditions: Bacto-Antibiotic Medium 3 + yeast extract + agar, inoculum approx. 10^6 CFU/mℓ, dihydrochlorides
Description: (§1) Tables 3 and 4 show the antibacterial spectra of TAN-749A, B, C, and D (dihydrochlorides) against various microbes.

[2] = system: Proteus morganii IFO 3168; test: Antibacterial spectrum, MIC on agar (Table 3); type: cell-based; conditions: Morganella morganii, IFO3168, Bacto-Antibiotic Medium 3 + yeast extract + agar, inoculum approx. 10^6 CFU/mℓ, dihydrochlorides, read-out: Minimal Inhibitory Concentration
Description: as §1

[3] = system: Escherichia coli NIHJ JC2; test: Antibacterial spectrum, MIC on agar (Table 3); type: cell-based; conditions: NIHJJC2, Bacto-Antibiotic Medium 3 + yeast extract + agar, inoculum approx. 10^6 CFU/mℓ, dihydrochlorides, read-out: Minimal Inhibitory Concentration
Description: as §1

[4] = system: Citrobacter freundii IFO 12681; test: Antibacterial spectrum, MIC on agar (Table 3); type: cell-based; conditions: Bacto-Antibiotic Medium 3 + yeast extract + agar, inoculum approx. 10^6 CFU/mℓ, dihydrochlorides
Description: as §1

[5] = system: Staphylococcus aureus FDA 209P; test: Antibacterial spectrum, MIC on agar (Table 3); type: cell-based; conditions: Bacto-Antibiotic Medium 3 + yeast extract + agar, inoculum approx. 10^6 CFU/mℓ, dihydrochlorides
Description: as §1

[6] = system: Proteus vulgaris IFO 3988; test: Antibacterial spectrum, MIC on agar (Table 3); type: cell-based; conditions: IFO3988, Bacto-Antibiotic Medium 3 + yeast extract + agar, inoculum approx. 10^6 CFU/mℓ, dihydrochlorides, read-out: Minimal Inhibitory Concentration
Description: as §1

[7] = system: Klebsiella pneumoniae IFO 3317; test: Antibacterial spectrum, MIC on agar (Table 3); type: cell-based; conditions: IFO3317, Bacto-Antibiotic Medium 3 + yeast extract + agar, inoculum approx. 10^6 CFU/mℓ, dihydrochlorides, read-out: Minimal Inhibitory Concentration
Description: as §1

Escherichia coli T7 [8] = test: Therapeutic effects on infectious diseases in mice (Table 6); type: in vivo; conditions: sc; mice infected with Escherichia coli T7; route Subcutaneous; dihydrochlorides
[9] = system: Staphylococcus aureus 1840 S; test: MIC against clinically isolated Staphylococcus aureus strains (Table 5); type: cell-based; conditions: strain 1840 S, resistance type None, agar dilution method, Mueller Hinton medium, inoculum 10^6CFU/mℓ, read-out: Minimal Inhibitory Concentration
Escherichia coli 0-111 = test: Therapeutic effects on infectious diseases in mice (Table 6); type: in vivo; conditions: mice infected with Escherichia coli 0-111, route Subcutaneous, dihydrochlorides
[10] = system: Pseudomonas aeruginosa P9; test: Antibacterial spectrum, MIC by agar dilution method (Table 4); type: cell-based; conditions: medium B-TSA (10% horse serum/TSA), inoculum 10^8 CFU/mℓ, dihydrochlorides, read-out: Minimal Inhibitory Concentration
Description: as §1

Escherichia coli T7 [11] = test: as above; type: cell-based; conditions: inoculum 10^8 CFU/mℓ, dihydrochlorides
Description: as §1

[12] = Acute toxicities on mice (Table 7); conditions: mouse, in vivo, dihydrochlorides
[13] = system: Staphylococcus aureus TN 2613; test: MIC against clinically isolated Staphylococcus aureus strains (Table 5); type: cell-based; conditions: TN2613, strain TN 2613, resistance type Methicillin, agar dilution method, Mueller Hinton medium, inoculum 10^6CFU/mℓ, read-out: Minimal Inhibitory Concentration
[14] = system: Staphylococcus aureus 308A-1; test: Therapeutic effects on infectious diseases in mice (Table 6); type: in vivo; conditions: 308A1, po, mice infected with Staphylococcus aureus 308A-1, dihydrochlorides
[15] = system: Staphylococcus aureus TN 2687; test: MIC against clinically isolated Staphylococcus aureus strains (Table 5); type: cell-based; conditions: TN2687, strain TN 2687, resistance type Macrolide, agar dilution method, Mueller Hinton medium, inoculum 10^6CFU/mℓ, read-out: Minimal Inhibitory Concentration
[16] = system: Staphylococcus aureus TN 2688; test: as above; type: cell-based; conditions: TN2688, strain TN 2688, resistance type Macrolide, agar dilution method, Mueller Hinton medium, inoculum 10^6CFU/mℓ, read-out: Minimal Inhibitory Concentration
[17] = system: Staphylococcus aureus TN 2684; test: as above; type: cell-based; conditions: TN2684, strain TN 2684, resistance type Macrolide, agar dilution method, Mueller Hinton medium, inoculum 10^6CFU/mℓ, read-out: Minimal Inhibitory Concentration
[18] = system: Staphylococcus aureus TN 2648; test: as above; type: cell-based; conditions: TN2648, strain TN 2648, resistance type Methicillin, agar dilution method, Mueller Hinton medium, inoculum 10^6CFU/mℓ, read-out: Minimal Inhibitory Concentration
[19] = system: Staphylococcus aureus 1840-2; test: as above; type: cell-based; conditions: 18402, strain 1840-2, resistance type Penicillin G, agar dilution method, Mueller Hinton medium, inoculum 10^6CFU/mℓ, read-out: Minimal Inhibitory Concentration
[20] = system: Pseudomonas aeruginosa P-9; test: Therapeutic effects on infectious diseases in mice (Table 6); type: in vivo; conditions: P9, sc; mice infected with Pseudomonas aeruginosa P-9; route Subcutaneous; dihydrochlorides
[21] = system: Acinetobacter calcoaceticus IFO 13006; test: Antibacterial spectrum, MIC on agar (Table 3); type: cell-based; conditions: Bacto-Antibiotic Medium 3 + yeast extract + agar, inoculum approx. 10^6 CFU/mℓ, dihydrochlorides, listed as C
Description: as §1

[22] = system: Staphylococcus aureus FDA209P; test: Antibacterial spectrum, MIC by agar dilution method (Table 4); type: cell-based; conditions: medium B-TSA (10% horse serum/TSA), inoculum 10^8 CFU/mℓ, dihydrochlorides, listed as C
Description: as §1

[23] = system: Staphylococcus aureus 308A-1; test: as above; type: cell-based; conditions: medium TSA, inoculum 10^8 CFU/mℓ, dihydrochlorides, listed as C
Description: as §1

[24] = system: Streptococcus pyogenes E-14; test: as above; type: cell-based; conditions: medium B-TSA (10% horse serum/TSA), inoculum 10^8 CFU/mℓ, dihydrochlorides, listed as C
Description: as §1

`CC=CC=CC(=O)NCC(O)CC(N)CC(=O)NCCC(=N)N` (stereo not shown) [TAN-749A] showed an MIC ([1]; Pseudomonas aeruginosa, IFO3080, Pseudomonas aeruginosa IFO 3080, read-out: Minimal Inhibitory Concentration) of 25 µg/mL, an MIC [2] greater than 100 µg/mL and an MIC [3] greater than 100 µg/mL. It also gave an MIC ([4]; Citrobacter freundii, IFO12681, Citrobacter freundii IFO 12681, read-out: Minimal Inhibitory Concentration) of no less than 100 µg/mL, an MIC ([5]; Staphylococcus aureus, FDA209P, read-out: Minimal Inhibitory Concentration) of 50 µg/mL and an MIC [6] of 100 µg/mL. The MIC [7] was greater than 100 µg/mL, the ED50 (Escherichia coli T7 [8]) was 50.8 mg/kg and the MIC [9] was 12.5 µg/mL (≈ 38.4 µM). It also gave an ED50 (Escherichia coli 0-111; Escherichia coli, 0111, sc, read-out: ED50) of 67.2 mg/kg, an MIC [10] of 100 µg/mL (≈ 307 µM) and an MIC (Escherichia coli T7 [11]; Escherichia coli, T7, Escherichia coli T7, medium TSA, read-out: Minimal Inhibitory Concentration) of 50 µg/mL (≈ 154 µM). For the same molecule, the LD50 ([12]; route Oral) was 2000 to 4000 mg/kg, the LD50 ([12]; sc, route Subcutaneous) was roughly 500 mg/kg and the MIC [13] was 6.25 µg/mL (≈ 19.2 µM). The ED50 [14] was 17.7 mg/kg, the MIC [15] was 6.25 µg/mL (≈ 19.2 µM) and the MIC [16] was 6.25 µg/mL (≈ 19.2 µM). For the same molecule, the MIC [17] was 6.25 µg/mL (≈ 19.2 µM), the MIC [18] was 3.13 µg/mL (≈ 9.62 µM) and the MIC [19] was 12.5 µg/mL (≈ 38.4 µM). For the same molecule, the ED50 [20] was 31 mg/kg.

For `CC=CC=CC(=O)NCC(O)CC(N)CC(=O)NCCC(=N)N` (stereo not shown) [TAN-749C], the “Minimal Inhibitory Concentration” value ([1]; Pseudomonas aeruginosa IFO 3080, listed as C) was 50 µg/mL, the “Minimal Inhibitory Concentration” value ([4]; Citrobacter freundii IFO 12681, listed as C) was greater than 100 µg/mL and the “Minimal Inhibitory Concentration” value ([5]; listed as C) was greater than 100 µg/mL. The “Minimal Inhibitory Concentration” value [21] was greater than 100 µg/mL, the ED50 (Escherichia coli 0-111; listed as C) was 50 mg/kg and the “Minimal Inhibitory Concentration” value [22] was greater than 100 µg/mL. The “Minimal Inhibitory Concentration” value (Escherichia coli T7 [11]; Escherichia coli T7, medium TSA, listed as C) was greater than 100 µg/mL, the “Minimal Inhibitory Concentration” value [23] was greater than 100 µg/mL and the “Minimal Inhibitory Concentration” value [24] was 100 µg/mL.

From patent EP0229313A2, “Compound related to antibiotic TAN-749 and their production” (priority 1985, dated 1987)
